Experiment: RP, Waters ACQUITY UPLC BEH C18, 100 × 2.1 mm, 1.7 µm, 0.3 mL/min, estimated dead time 0.73 min; A: water + 0.1% formic acid, pH 3; B: methanol + 0.1% formic acid, pH 3; gradient (min/%B) 0/10 14/90 16/90 18/10
Conditions: stereoisomer not certain

| SMILES | LC retention time |
| --- | --- |
| COC(=O)Nc1cccc(OC(=O)Nc2cccc(C)c2)c1 [Phenmedipham] | 9.52 min |
| COCCc1ccc(OCC(O)CNC(C)C)cc1 (stereo not given) [Metoprolol] | 5.31 min |
| CN(C)CCC(c1ccc(Cl)cc1)c1ccccn1 (stereo not given) [Chlorpheniramine] | 7.27 min |
| CNC(C)Cc1ccc2c(c1)OCO2 (stereo not given) [MDMA] | 3.79 min |
| CCCC(=NOCC)C1C(=O)CC(CC(C)SCC)CC1=O (stereo not given) [Sethoxydim] | 11.8 min |
| COC1C(OC(C)=O)CC(=O)OC(C)CC=CC=CC(O)C(C)CC(CC=O)C1OC1OC(C)C(OC2CC(C)(O)C(OC(=O)CC(C)C)C(C)O2)C(N(C)C)C1O (stereo not given) [Josamycin] | 11.4 min |
| CCOC(=O)c1ccccc1C(=O)OCC [Diethyl phthalate] | 9.3 min |
| CNC(=O)Oc1cc(C)c(S(C)=O)c(C)c1 (stereo not given) [Methiocarb sulfoxide] | 4.6 min |
| CC1CCCCC1NC(=O)Nc1ccccc1 (stereo not given) [Siduron A] | 9.88 min |
| COC(=O)c1cc(Oc2ccc(Cl)cc2Cl)ccc1[N+](=O)[O-] [Bifenox] | 12.2 min |
| COc1ccc(NC(=O)N(C)C)cc1Cl [Metoxuron] | 6.3 min |
| Clc1ccc(CSC(Cn2cncn2)=Nc2ccc(Cl)cc2Cl)cc1 [Imibenconazole] | 13 min |
| CCC(C)c1ccccc1OC(=O)NC (stereo not given) [Fenobucarb] | 9.78 min |
| Cc1cccc(C)c1N(Cn1cccn1)C(=O)CCl [Metazachlor] | 8.95 min |
| CCCCc1c(C)nc(NCC)[nH]c1=O [Ethirimol] | 8.99 min |
| CC1(C)OC2CC3C4CCC5=CC(=O)C=CC5(C)C4(F)C(O)CC3(C)C2(C(=O)CO)O1 (stereo not given) [Triamcinolone acetonide] | 9.42 min |
| COC(=O)C(C)=COP(=S)(OC)OC [Methacrifos] | 9.37 min |
| CC(=NC#N)N(C)Cc1ccc(Cl)nc1 [Acetamiprid] | 4.99 min |
| CCOP(=S)(OCC)SCn1c(=O)oc2cc(Cl)ccc21 [Phosalone] | 12 min |
| CCNc1nc(Cl)nc(NC(C)(C)C#N)n1 [Cyanazine] | 7.05 min |
| CCOP(=O)(SC(C)CC)SC(C)CC (stereo not given) [Cadusafos] | 12.2 min |
| CC1=C(C(=O)O)N2C(=O)C(NC(=O)C(N)c3ccc(O)cc3)C2SC1 (stereo not given) [Cefadroxil] | 4.91 min |
| Fc1ccc(C2CCNCC2COc2ccc3c(c2)OCO3)cc1 (stereo not given) [Paroxetine] | 9.22 min |

| SMILES | LC retention time |
| --- | --- |
| CC(C)(C)C(=O)C(Oc1ccc(Cl)cc1)n1cncn1 (stereo not given) [Triadimefon] | 10.6 min |
| CC(C)(C)C(O)C(Oc1ccc(Cl)cc1)n1cncn1 (stereo not given) [Triadimenol] | 11.3 min |
| CCCCOC(=O)C(C)Oc1ccc(Oc2ccc(C(F)(F)F)cn2)cc1 (stereo not given) [Fluaziflop-P-butyl] | 13.1 min |
| CON(C)C(=O)Nc1ccc(Cl)c(Cl)c1 [Linuron] | 10.3 min |
| CC(C)Cc1ccc(C(C)C(=O)O)cc1 (stereo not given) [Ibuprofen] | 12.4 min |
| COCCOc1ccccc1S(=O)(=O)NC(=O)Nc1nc(OC)nc(OC)n1 [Cinosulfuron] | 6.25 min |
| CCN(CC)C(=O)C(C)Oc1cccc2ccccc12 (stereo not given) [Napropamide] | 11 min |
| CCOC(=O)CCN(Cc1ccccc1)SN(C)C(=O)ON=C(C)SC [Alanycarb] | 11.6 min |
| COC(=O)c1ccccc1S(=O)(=O)NC(=O)Nc1nc(OC(F)F)cc(OC(F)F)n1 [Primisulfuron-methyl] | 8.86 min |
| Cc1cc2c(s1)Nc1ccccc1N=C2N1CCN(C)CC1 [Olanzapine] | 3.3 min |
| CCCSP(=O)(OCC)Oc1cnn(-c2ccc(Cl)cc2)c1 (stereo not given) [Pyraclofos] | 12 min |
| CCNc1nc(Cl)nc(NC(C)C)n1 [Atrazine] | 9.34 min |
| CC1(C)C(C=C(Br)Br)C1C(=O)OC(C#N)c1cccc(Oc2ccccc2)c1 (stereo not given) [Deltamethrin] | 14 min |
| CCSC(=O)N(CC)C1CCCCC1 [Cycloate] | 12.3 min |
| CSc1nc(NC(C)C)nc(NC(C)C)n1 [Prometryn] | 10.8 min |
| COc1ncnc(NS(=O)(=O)c2ccc(N)cc2)c1OC [Sulfadoxine] | 5 min |
| COC(=O)c1ccccc1S(=O)(=O)NC(=O)Nc1nc(C)nc(OC)n1 [Metsulfuron methyl] | 5 min |
| CCC(C)C1OC2(C=CC1C)CC1CC(CC=C(C)C(OC3CC(OC)C(OC4CC(OC)C(NC)C(C)O4)C(C)O3)C(C)C=CC=C3COC4C(O)C(C)=CC(C(=O)O1)C34O)O2 (stereo not given) [Emamectin B1a] | 13.8 min |
| CC(C)(C)Nc1nc(N)[nH]c(=O)n1 [Deethyl-2-hydroxy-terbuthylazine] | 3.24 min |
| CCOc1ccc(NC(=O)OC(C)C)cc1OCC [Diethofencarb] | 9.88 min |
| Cc1cccc(C)c1NC1=NCCCS1 [Xylazine] | 4.92 min |
| CC(Oc1ccc(Oc2ncc(C(F)(F)F)cc2Cl)cc1)C(=O)O (stereo not given) [Haloxyfop] | 11.8 min |
| CC1C(c2ccc(Cl)cc2)SC(=O)N1C(=O)NC1CCCCC1 (stereo not given) [Hexythiazox] | 14.2 min |

| SMILES | LC retention time |
| --- | --- |
| CC(C)Nc1nc(N)nc(Cl)n1 [Deetheylatrazine] | 6.06 min |
| COCCN(C(=O)CCl)c1c(C)cccc1C [Dimethachlor] | 9.39 min |
| CC1(C)SC2C(NC(=O)Cc3ccccc3)C(=O)N2C1C(=O)O (stereo not given) [Penicillin G] | 8.55 min |
| CNC(=O)CSP(=O)(OC)OC [Omethoate] | 2.5 min |
| O=C(NC(=O)c1c(F)cccc1F)Nc1cc(Cl)c(F)c(Cl)c1F [Teflubenzuron] | 13 min |
| CCN(CC)C(=O)SCc1ccc(Cl)cc1 [Thiobencarb] | 12.9 min |
| CC(C1CC1)C(O)(Cn1cncn1)c1ccc(Cl)cc1 (stereo not given) [Cyproconazole I] | 10.5 min |
| CC(C)(C)NCC(O)c1ccc(N)c(C#N)c1 (stereo not given) [Cimbuterol] | 2.78 min |
| CC1=C(C(=O)O)N2C(=O)C(NC(=O)C(N)c3ccccc3)C2SC1 (stereo not given) [Cefalexin] | 3.25 min |
| COCC(C)N(C(=O)CCl)c1c(C)csc1C (stereo not given) [Dimethenamid] | 10.1 min |
| CN(C)CCCN1c2ccccc2Sc2ccc(Cl)cc21 [Chlorpromazine] | 10.3 min |
| CC(C)=CC1C(C(=O)OCN2C(=O)C3=C(CCCC3)C2=O)C1(C)C (stereo not given) [Tetramethrin] | 12.8 min |
| CC(C)(C)NCC(O)c1ccccc1Cl (stereo not given) [Tulobuterol] | 5.6 min |
| CC(N)Cc1ccccc1 (stereo not given) [Amphetamine] | 3.59 min |
| CCNC(=O)NC(=O)C(C#N)=NOC [Cymoxanil] | 5.24 min |
| COC(=O)C(C)Oc1ccc(Oc2ncc(C(F)(F)F)cc2Cl)cc1 (stereo not given) [Haloxyfop-methyl] | 12.6 min |
| COP(=O)(OC)Oc1ccc(S(C)=O)c(C)c1 (stereo not given) [Fenoxon sulfoxide] | 5.14 min |
| CC(C)OC(=O)C(C(=O)OC(C)C)=C1SCCS1 [Isoprothiolane] | 10.4 min |
| CCCOCC(=Nc1ccc(Cl)cc1C(F)(F)F)n1ccnc1 [Triflumizole] | 12.7 min |
| CC12CCC(=O)C=C1CCC1C2C(=O)CC2(C)C1CCC2(O)C(=O)CO (stereo not given) [Cortisone] | 8.13 min |
| Nc1ccc(S(=O)(=O)Nc2ncccn2)cc1 [Sulfadiazine] | 2.09 min |
| CCCCC(C)C(OC(=O)CC(CC(=O)O)C(=O)O)C(CC(C)CCCCCCC(O)CC(O)C(C)N)OC(=O)CC(CC(=O)O)C(=O)O (stereo not given) [Fumonisin B2] | 11 min |
| CC1(C)CCC(Cc2ccc(Cl)cc2)C1(O)Cn1cncn1 (stereo not given) [Metconazole] | 11.9 min |

| SMILES | LC retention time |
| --- | --- |
| CCCCCCCCn1sccc1=O [Octhilinone (2-Octyl-4-isothiazoline-3-one)] | 11 min |
| CC1(C)SC2C(NC(=O)C(N)c3ccc(O)cc3)C(=O)N2C1C(=O)O (stereo not given) [Amoxicillin] | 4.61 min |
| CC(=O)OCC(=O)C1(O)CCC2C3CCC4=CC(=O)C=CC4(C)C3C(O)CC21C (stereo not given) [Prednisolone 21-acetate] | 9.54 min |
| Cc1c(Nc2ncccc2C(=O)O)cccc1C(F)(F)F [Flunixin] | 9.31 min |
| CCCSC(=O)N(CCC)CCC [Vernolat] | 12.2 min |
| Cc1cc(C)nc(Nc2ccccc2)n1 [Pyrimethanil] | 9.86 min |
| CN(C)C(=O)Nc1cccc(C(F)(F)F)c1 [Fluomethuron] | 8.25 min |
| CC12CCC(=O)C=C1CCC1C2C(O)CC2(C)C1CCC2(O)C(=O)CO (stereo not given) [Hydrocortisone] | 8.53 min |
| CCOP(=S)(OCC)SCn1nnc2ccccc2c1=O [Azinphos-ethyl] | 10.8 min |
| COC(=O)c1cccc(C)c1S(=O)(=O)NC(=O)Nc1nc(OCC(F)(F)F)nc(N(C)C)n1 [Triflusulfuron-methyl] | 9.27 min |
| COP(=O)(OC)OC=C(Cl)Cl [Dichlorvos] | 7.31 min |
| CNC(=N[N+](=O)[O-])NCc1cnc(Cl)s1 [Clothianidin] | 4.13 min |
| CCOP(=S)(OCC)Oc1ccc(=O)n(-c2ccccc2)n1 [Pyridaphenthion] | 12.1 min |
| CNC(=O)CSP(=S)(OC)OC [Dimethoate] | 5.37 min |
| C=CC=CCC1=C(C)C(OC(=O)C2C(C=C(C)C)C2(C)C)CC1=O (stereo not given) [Pyrethrin I] | 13.7 min |
| CN(C)CCOC(c1ccccc1)c1ccccc1 [Diphenhydramine] | 7.71 min |
| COC(=O)C=C(C)OP(=O)(OC)OC [Mevinphos trans] | 4.95 min |
| CC(=O)Oc1ccc2c3c1OC1C(OC(C)=O)C=CC4C(C2)N(C)CCC341 (stereo not given) [Heroin] | 5.32 min |
| CC(Cc1ccc(C(C)(C)C)cc1)CN1CC(C)OC(C)C1 (stereo not given) [Fenpropimorph] | 14.1 min |
| COc1ccc(NS(=O)(=O)c2ccc(N)cc2)nn1 [Sulfamethoxypyridazine] | 3.65 min |
| COP(=O)(NC(C)=O)SC (stereo not given) [Acephate] | 1.45 min |
